Measurements taken from article PMC11374673, “Discovery of isoquinoline sulfonamides as allosteric gyrase inhibitors with activity against fluoroquinolone-resistant bacteria” (Nature Chemistry, 2024).

tested on: E. coli W3110; assay: H-89 derivatives rescreen, 50 µM; assay type: cell-based; conditions: Escherichia coli, H-89 derivative rescreen, highest 50 µM
Method: From glycerol stocks, E. coli W3110 was cultured on blood agar plates (PB5039A, Thermo Scientific) by overnight (18 ± 2 h) aerobic incubation at 37 °C. A single colony was transferred to tryptic soy broth (TSB, 02-200-500, Scharlab). The cultures were grown to exponential phase (OD600 of 0.5) at 37 °C. The bacterial suspensions were diluted 200-fold in cation-adjusted Mueller–Hinton broth (CAMHB) and 99 µl was added to a library of test compounds (1 µl 10 mM DMSO stock, per well in technical duplicates) in polypropylene 96-well microtitre plates to reach a volume of 100 µl and a final concentration of 100 µM for each test compound and a maximum of 1% DMSO. […] Screening hits were selected from the wells where no visible bacterial growth was observed, as compared with the inoculum controls containing 1% DMSO. The follow-up screen of H-89 derivatives was performed under similar conditions with a final concentration of 50 µM.

MIC [µM]	SMILES
> 50	O=S(=O)(NCCNCCCc1ccc(-c2cnc3[nH]ccc3c2)cc1)c1ccc(Cl)cc1 [Compound 17]
> 50	Cc1ccc(S(=O)(=O)NCCNCCCc2ccc(-c3cnc4[nH]ccc4c3)cc2)cc1 [Compound 18]
> 50	O=S(=O)(NCCNCCCc1ccc(-c2cnc3[nH]ccc3c2)cc1)c1ccccc1 [Compound 19]
> 50	COc1ccc(S(=O)(=O)NCCNCCCc2ccc(-c3cnc4[nH]ccc4c3)cc2)cc1 [Compound 20]
> 50	O=C(CCC#Cc1cnc2[nH]ccc2c1)NCCNS(=O)(=O)c1cccc2cnccc12 [Compound 21]
> 50	O=S(=O)(NCCNCCCc1ccc(-c2cnc3[nH]ccc3c2)cc1)c1ccc(Cl)c(Cl)c1 [Compound 22]
> 50	O=C(CCc1ccc(-c2cnc3[nH]ccc3c2)cc1)NCCNS(=O)(=O)c1cccc([N+](=O)[O-])c1 [Compound 23]
> 50	O=C(CCc1ccc(-c2cnc3[nH]ccc3c2)cc1)NCCNS(=O)(=O)c1cccc(Cl)c1 [Compound 24]
> 50	O=C(CCc1ccc(-c2cnc3[nH]ccc3c2)cc1)NCCNS(=O)(=O)c1ccc(F)cc1 [Compound 25]
> 50	Clc1cnc(N2CCCC2)nc1Nc1n[nH]c2ccccc12 [Compound 26]
> 50	CC(C)(C)c1cc(NC(=O)CCC#Cc2cccnc2)no1 [Compound 27]
> 50	CC(C)(C)c1cc(NC(=O)CCC#Cc2cnc3[nH]ccc3c2)no1 [Compound 28]
> 50	CC(C)(C)c1cc(NC(=O)CCC#Cc2ccc(N)nc2)no1 [Compound 29]
> 50	CC(C)(C)c1cc(C(=O)NCC#Cc2ccc(N)nc2)no1 [Compound 30]
> 50	CC(C)(C)c1cc(C(=O)NCC#Cc2cnc3[nH]ccc3c2)no1 [Compound 31]
> 50	CC(C)(C)c1cc(C(=O)NCC#Cc2cccnc2)no1 [Compound 32]
> 50	CC(C)(C)c1cc(NC(=O)CCC#Cc2ccncc2)no1 [Compound 33]
> 50	Nc1nccc2c(S(=O)(=O)NCCNC/C=C/c3ccc(-c4cccnc4)cc3)cccc12 [Compound 34]
> 50	O=S(=O)(NCCNC/C=C/c1ccc(-c2cccnc2)cc1)c1cccc2cnccc12 [Compound 35]
> 50	CS(=O)(=O)NCCNC/C=C/c1ccc(-c2cccnc2)cc1 [Compound 36]
> 50	O=C(NCCNC/C=C/c1ccc(-c2cccnc2)cc1)c1cccc2cnccc12 [Compound 37]
> 50	O=C(/C=C/c1ccc(-c2cccnc2)cc1)NCCNS(=O)(=O)c1cccc2cnccc12 [Compound 38]
> 50	O=S(=O)(NCCNCCCCc1ccc(-c2cccnc2)cc1)c1cccc2cnccc12 [Compound 39]
> 50	Nc1ncccc1-c1ccc(CCC(=O)NCCNS(=O)(=O)c2cccc3cnccc23)cc1 [Compound 40]
> 50	Nc1ccc(-c2ccc(CCC(=O)NCCNS(=O)(=O)c3cccc4cnccc34)cc2)cn1 [Compound 41]
> 50	CNC(=O)c1ccc(-c2ccc(CCC(=O)NCCNS(=O)(=O)c3cccc4cnccc34)cc2)cn1 [Compound 42]
> 50	CNC(=O)c1ncccc1-c1ccc(CCC(=O)NCCNS(=O)(=O)c2cccc3cnccc23)cc1 [Compound 43]
> 50	O=C(CCc1ccc(-c2cnc3[nH]ccc3c2)cc1)NCCNS(=O)(=O)c1cccc2cnccc12 [Compound 44]
> 50	O=S(=O)(NCCNCCCc1ccc(-c2cnc3[nH]ccc3c2)cc1)c1cccc2cnccc12 [Compound 45]
> 50	O=S(=O)(NCCNC/C=C/c1ccccc1-c1ccc2c(c1)OCO2)c1cccc2cnccc12 [Compound 46]
